Experiments:
[1] = test system: ovariectomized rats; experiment: Ex vivo BMD (pQCT) of proximal tibia, 2S(−) 8-PN in ovariectomized rats (Example 3); design: species or system Sprague-Dawley rats; conditions: OVX rats; for Total BMD, MEAN / Total BMD, MEDIAN / Trabecular BMD, MEAN / Trabecular BMD, MEDIAN: left proximal tibia ex vivo, s.c. 4 weeks
Description: (§1) The aim of the study was to examine bone and uterine effects of a 4-week treatment with 2S(−) 8-Prenylnaringenin (8-PN) in 3-month-old ovariectomized rats. […] At the end of the study, uterine weight and ex vivo bone mineral density (BMD) of tibia were measured.
(§2) A total of 30 female 13-14-week-old Sprague-Dawley rats were used in the study. The animals were randomized into 5 groups, with 6 rats/group. Group 1 was sham-operated (SHAM) and groups 2-5 were ovariectomized (OVX).
(§3) Treatments with the vehicle or test substance started on the day following operation. […] The animals were sacrificed one day after the last dosing. At the end of the study, left tibiae were excised for ex vivo BMD measurement (pQCT) at proximal tibia and uteri were excised for the determination of absolute and relative weights. In addition, samples for the determination of 2S(−)8-Prenylnaringenin concentration were taken from all dosing solutions on the day when they were prepared and on the last day of use. The data of body weights, relative uterine weights and BMD were analyzed with one-way analysis of variance.
Bone mineral density measurement was carried out by pQCT (XCT-960A, Stratec, Germany). The bone specimens were thawed before measurement. Six 1 mm-thick sections of the proximal tibia (2 mm below the epiphyseal growth plate) were scanned at 0.5 mm intervals using a voxel size of 0.148 mm. Total and trabecular BMD (mg/cm^3) were measured. After bone densitometry, the specimens were wrapped back to saline saturated gauzes and stored at −20° C.

[2] = test system: ovariectomized rats; experiment: Relative uterine weight, 2S(−) 8-PN in ovariectomized rats (Example 3); assay type: in vivo, Sprague-Dawley rats; conditions: OVX rats; for Relative uterus weight, Mean: s.c. 7 times a week
Description: as §1, §2, §3
Relative uterine weight was calculated as percentage of body weight

[3] = Body weight, 2S(−) 8-PN in ovariectomized rats (Example 3); assay type: in vivo, Sprague-Dawley rats; conditions: OVX rats, s.c. once a day, 7 times a week, 4 weeks
Excerpt: as §2
The mean body weight of the animals was 271 g (SD 9, SE 2) before operation. Treatments with the vehicle or test substance started on the day following operation. The animals in the SHAM group received the vehicle, 30% hydroxypropyl-β-cyclodextrin s.c., and in the OVX groups either the vehicle or 2S(−) 8-PN at nominal doses of 0.67 mg/kg/d, 1.77 mg/kg/d or 18 mg/kg/d s.c. Treatments continued for 4 weeks; the dosing frequency was seven times a week. The animals were sacrificed one day after the last dosing. At the end of the study, left tibiae were excised for ex vivo BMD measurement (pQCT) at proximal tibia and uteri were excised for the determination of absolute and relative weights. In addition, samples for the determination of 2S(−)8-Prenylnaringenin concentration were taken from all dosing solutions on the day when they were prepared and on the last day of use. The data of body weights, relative uterine weights and BMD were analyzed with one-way analysis of variance.

[4] = test system: ovariectomized rats; experiment: Uterus histology, luminal epithelium cell height in ovariectomized rats (Example 3); assay type: in vivo, Sprague-Dawley rats; conditions: ovariectomized rat; at 1.77 mg/kg and 18 mg/kg
Description: A post-study histological examination was performed. The formalin fixed uteri were embedded in paraffin, cut into 5 μm transverse sections and were stained with haematoxylin eosin. The sections were then evaluated quantitatively for luminal epithelium cell height.

[5] = test system: ovariectomized rats; experiment: Trabecular density of proximal tibia, 8-PN racemic, 2S(−) 8-PN and estradiol hemihydrate in ovariectomized rats (Example 4); assay type: in vivo, Sprague-Dawley rats; conditions: OVX rats; s.c. 28 days; 20 mg/kg/d in HP-β-CD
Description: (§4) The aim of the study was to directly compare the effects of Prenylnaringenin (racemate) and 2S(−) 8-Prenylnaringenin to the effects of estradiol hemihydrate on bone mineral density and uterine weight on 3-month-old ovariectomized rats using identical formulations. In addition, the effects of estradiolhemihydrate in two vehicles (oily, aqueous) were examined for influence of formulations. The substances were administered subcutaneously(s.c.) seven days a week beginning the day after ovariectomy. At the end of the study, uterine weight and bone mineral density (BMD) of tibia were measured.
(§5) Forty-one female Sprague-Dawley rats, 12-14 weeks of age were randomized into six groups, 6-8 animals in each. Five groups were ovariectomized (OVX) and one group was sham-operated (SHAM). Treatments started on the day following operation and continued for 28 days. The animals were treated s.c. once a day seven times a week as follows. Group 1 (SHAM vehicle group) and group 2 (OVX vehicle group) were given the vehicle 30% hydroxypropyl-β-cyclodextrin (HP-β-CD). Groups 3 and 4 were administered 4 μg/kg/d of estradiol hemihydrate in vehicle benzyl benzoate/ricinus oil (B/R) and in vehicle HP-β-CD, respectively. Groups 5 and 6 were given 20 mg/kg/d of 2S(−)8-Prenylnaringenin and racemic 8-Prenylnaringenin, respectively, both in vehicle HP-β-CD. At the end of the study, left tibiae were excised for the ex vivo BMD […] were taken from all dosing solutions on the first and last day of use.
(§6) Vehicle 1 (used in the groups 1 and 2): 30% hydroxypropyl-β-cyclodextrin and 0.3% NaCl (w/v), 5% ethanol (v/v) in Aqua sterilisata, pH 7.4.
(§7) Vehicle 2 (used when preparing dosing solutions of the groups 4, 5 and 6): 30% hydroxypropyl-β-cyclodextrin and 0.3% NaCl (w/v) in Aqua sterilisata, pH 7.4.
(§8) Vehicle 3 (used when preparing a dosing solution of the group 3): benzyl benzoate/ricinus oil (B/R) 1+4, v/v.

[6] = test system: ovariectomized rats; experiment: Relative uterus weight, 8-PN racemic, 2S(−) 8-PN and estradiol hemihydrate in ovariectomized rats (Example 4); assay type: in vivo, Sprague-Dawley rats; conditions: OVX rats
Description: as §4, §5, §6, §7, §8

[7] = Body weight, 8-PN racemic, 2S(−) 8-PN and estradiol hemihydrate in ovariectomized rats (Example 4); assay type: in vivo, Sprague-Dawley rats; conditions: OVX rats; s.c. once a day, 28 days; 20 mg/kg/d in HP-β-CD
Description: as §4, §5, §6, §7, §8

[8] = dose range 0.67-18 mg/kg/d s.c., 4 weeks
[9] = s.c. 28 days, 20 mg/kg/d in HP-β-CD, calculated as percentage of body weight

CC(C)=CCc1c(O)cc(O)c2c1O[C@H](c1ccc(O)cc1)CC2=O [2S(−)8-PN, 2S(−) 8-Prenylnaringenin]
effect on OVX-induced decreases in BMD at the highest dose ([1]; 18 mg/kg/d s.c., 4 weeks): completely inhibited OVX-induced effects
effect on OVX-induced decreases in total and trabecular BMD [1, 8]: prevented the OVX-induced decreases in both total and trabecular BMD at the proximal tibial metaphysis dose dependently
Total BMD, MEAN ([1]; 0.67 mg/kg/d): 561.1 mg/mL
Total BMD, MEDIAN ([1]; 0.67 mg/kg/d): 569.2 mg/mL
Trabecular BMD, MEAN ([1]; 0.67 mg/kg/d): 319.1 mg/mL
Trabecular BMD, MEDIAN ([1]; 0.67 mg/kg/d): 318.7 mg/mL
Total BMD, MEAN ([1]; 1.77 mg/kg/d): 581.5 mg/mL
Total BMD, MEDIAN ([1]; 1.77 mg/kg/d): 568.1 mg/mL
Trabecular BMD, MEAN ([1]; 1.77 mg/kg/d): 330.9 mg/mL
Trabecular BMD, MEDIAN ([1]; 1.77 mg/kg/d): 329.4 mg/mL
Total BMD, MEAN ([1]; 18 mg/kg/d): 636.5 mg/mL
Total BMD, MEDIAN ([1]; 18 mg/kg/d): 635.4 mg/mL
Trabecular BMD, MEAN ([1]; 18 mg/kg/d): 411.8 mg/mL
Trabecular BMD, MEDIAN ([1]; 18 mg/kg/d): 396.6 mg/mL
effect on the uterus compared with 17β-estradiol ([2]; at the same bone effective dose): much lower effect on the uterus than 17β-estradiol at the same bone effective dose
increase of relative uterine weight compared to ovariectomy [2, 8]: less than twofold
relative uterine weights ([2]; dose range 0.67-18 mg/kg/d, SHAM group 0.194%): 0.054-0.065%
Relative uterus weight, Mean ([2]; 4 weeks, 0.67 mg/kg/d): 0.054%
Relative uterus weight, Mean ([2]; 4 weeks, 1.77 mg/kg/d): 0.063%
Relative uterus weight, Mean ([2]; 4 weeks, 18 mg/kg/d): 0.065%
Body weight at the end (bw4b) ([3]; 0.67 mg/kg/d): 323 (11) g
The change in Body weight (bw4b-bw0) ([3]; 0.67 mg/kg/d): 53 (7) g
Body weight at the end (bw4b) ([3]; 1.77 mg/kg/d): 305 (7) g
The change in Body weight (bw4b-bw0) ([3]; 1.77 mg/kg/d): 35 (5) g
Body weight at the end (bw4b) ([3]; 18 mg/kg/d): 304 (5) g
The change in Body weight (bw4b-bw0) ([3]; 18 mg/kg/d): 33 (4) g
luminal epithelial cell height [4]: weak stimulation of luminal epithelial cell height
Trabecular density at left proximal tibia, Mean [5]: 352 mg/cm3
Trabecular density at left proximal tibia, Median [5]: 352 mg/cm3
effect on the uterus and body weight compared with estradiol in the same vehicle (HP-β-CD) ([6]; 20 mg/kg/d vs estradiol 4 μg/kg/d, same bone effective dose): much lower effect on the uterus and body weight than estradiol at the same bone effective dose
Relative uterus weight, Mean [6, 9]: 0.067
Relative uterus weight, Median [6, 9]: 0.067
Body weight at The end (bw4b) [7]: 289(6) g
The change in Body weight (bw4b-bw0) [7]: 24(2) g
